System: Treg cells (CD4+CD25highFoxP3+)
Test: Antigen-specific tolerogenic dendritic cells (tDC) activity on Treg cell development
Type: cell-based, OTII mice
Settings: FIG. 3; tDC cultured with OTII T cells 4-5 days, flow cytometry
Experimental: The assay included the use of OTII mice which have a transgenic T cell receptor specific for an immune-dominant ovalbumin peptide (323-339). In order to create antigen-specific tDCs, CD11c^+ splenocytes were isolated, and the ovalbumin peptide (323-339) added in vitro at 1 μg/ml or no antigen. Soluble or nanocarrier-encapsulated rapamycin was then added to the DCs for 2 hours which were then washed extensively to remove free rapamycin from the culture. Purified responder CD4^+CD25^− cells were isolated from OTII mice and added to tDC at a 10:1 T to DC ratio. The mixture of tDC and OTII T cells were then cultured for 4-5 days, and the frequency of Treg cells (CD4^+CD25highFoxP3^+) were analyzed by flow cytometry as shown in FIG. 1. Regions were selected based on isotype controls.
Free rapamycin or synthetic nanocarriers containing rapamycin were combined with free soluble Ovalbumin (323-339) to evaluate induction of tDC (FIG. 2). […] Briefly, antigen specific tDC were obtained by isolating dendritic cells (CD11c^+ splenocytes) and culturing them in combination with the Ovalbumin (323-339) peptide plus soluble or nanocarrier encapsulated rapamycin (Synthetic Nanocarrier #s 13, 14, 15 and 16) for 2 hours followed by extensive washing. […] The mixture of tDC and OTII T cells were then cultured for 4-5 days, and the frequency of Treg cells (CD4^+CD25highFoxP3^+) were analyzed by flow cytometry.

CO[C@H]1C[C@@H]2CC[C@@H](C)[C@@](O)(O2)C(=O)C(=O)N2CCCC[C@H]2C(=O)O[C@H]([C@H](C)C[C@@H]2CC[C@@H](O)[C@H](OC)C2)CC(=O)[C@H](C)/C=C(\C)[C@@H](O)[C@@H](OC)C(=O)[C@H](C)C[C@H](C)/C=C/C=C/C=C/1C [rapamycin]
induction of FoxP3 expressing cells: 2.7%

— patent US11235057B2, “Methods for providing polymeric synthetic nanocarriers for generating antigen-specific tolerance immune responses” (Selecta Biosciences, Inc., priority 2011, dated 2022)
